This note sets out measurements from patent US12220418B2 (MEDINCELL S.A., priority 2023, dated 2025).

The data set can be described thus: Open-label SAD and MAD study, pharmacokinetics in healthy subjects and patients. It counts as in vivo, human. As to conditions: oral, 2.5 to 20 mg/day for 7 days. As for the experimental part:
This study was an open-label, SAD, and MAD study to evaluate the safety, tolerability, and PK of Formulation 1 in healthy subjects and patients with a diagnosis of schizophrenia or schizoaffective disorder. Healthy subjects received subtherapeutic Formulation 1 doses of up to 105 mg and patients received therapeutic doses of up to 566 mg. […] Subjects and patients who met screening eligibility were assigned to 1 of 8 active cohorts, or the Vehicle Cohort, as detailed in Table 5.1 below.
All cohorts included assessments of safety, tolerability, and intensive PK sampling.
Except for the starting dose of 70 mg, the study followed an adaptive design in which the decision to dose-escalate with Formulation 1 was based on a review of the PK and safety data from the preceding lower dose of Formulation 1.
An extensive PK collection scheme was applied following the last oral dose to fully characterize the PK at steady-state.
In multiple-dose cohorts, the 3 doses of Formulation 1 were administered on day 1, day 29 (week 4) and day 57 (week 8), respectively.

`Cc1cc2c(s1)Nc1ccccc1N=C2N1CCN(C)CC1` [olanzapine, 2-methyl-4-(4-methyl-1-piperazinyl)-10H-thieno[2,3-b] [1,5]benzodiazepine]: the “increase of systemic exposure (Cmax, AUCτ,ss) with dose” value was “dose-proportional”.
